From PMC12735718, “Novel Adamantane–Sclareol Hybrids Exploit ROS Vulnerability to Overcome Multidrug-Resistance in Glioblastoma Cells” (Molecules, 2025)

Columns and labels:
[1] = system: ASK1 protein in U87 cells; test: ASK1 protein expression by flow cytometry, U87; type: cell-based, human; details: U87, 2 µM and 4 µM, 48 h
Protocol: (§1) Flow cytometry was used to assess TrxR1 and ASK1 protein expression in the U87 and U87-TxR cell lines. Cells were seeded and allowed to attach overnight before exposure to compounds 2 and 5 at final concentrations of 2 μM and 4 μM. After 48 h treatment, cells were collected by trypsinization, rinsed with PBS, and subsequently fixed in 4% PFA for 10 min at room temperature. For permeabilization, ice-cold absolute methanol was added, and the samples were maintained at −20 °C overnight. Following this step, cells were washed in PBS and incubated for 1 h in 0.5% BSA/PBS to block nonspecific binding. Pelleted cells were then resuspended in primary antibodies diluted in 0.5% BSA/PBS [(ASK1, 1:200 (ab45178, Abcam, Cambridge, UK); TrxR1, 1:500 (ab124954, Abcam, Cambridge, UK)] and incubated overnight at +4 °C. Cells were then washed in PBS and incubated for 1 h at room temperature in the dark with fluorescently labeled anti-rabbit IgG secondary antibody (Alexa Fluor 488, ab150097, Abcam, Cambridge, UK), diluted 1:1000 in 0.5% BSA/PBS. Following incubation, samples were washed, resuspended in cold PBS, and analyzed by flow cytometry. A minimum of 10,000 events per sample were acquired, and fluorescence was detected in a green fluorescence channel (525 nm). Data acquisition and processing were performed using CytExpert software (version 2.4.0.28; Beckman Coulter, Indianapolis, IN, USA).

[2] = system: P-gp; parameters: method as in PMID 40939538; details: non-small cell lung carcinoma sensitive and MDR P-gp-overexpressing cells ref 23; cited from earlier work
[3] = system: antioxidant-related gene mRNA in U87-TxR cells; test: RT-qPCR of oxidative-stress-related genes, U87-TxR; type: cell-based, human; details: 4 µM, 24 h; for increase in GPX1 mRNA expression: relative to untreated control
Protocol: (§2) Prior to RNA isolation, U87 and U87-TxR cell were treated with 4 μM 2 and 5 for 24 h. TRIzol® Reagent was used to isolate total RNA according to manufacturer’s instructions. RNA concentration was determined with NanoPhotometer N60 (Implen GmbH, Munchen, Germany). Quality was determined using electrophoresis on a 1.3% agarose gel. Reverse transcription reaction was carried out using High-Capacity cDNA Reverse Transcription Kit with RNase Inhibitor.
(§3) Quantitative RT-PCR (RT-qPCR) was performed to evaluate mRNA expression levels of CAT, GSR, SOD2, GPX1, GPX4, GST, TRX1, and TRXR1, with ACTB used as the reference gene. Reactions were carried out using Maxima SYBR Green/ROX qPCR Master Mix (Thermo Fisher Scientific, Waltham, MA, USA) in the QuantStudio™ 3 Real-Time PCR System (Applied Biosystems by Thermo Fisher Scientific). Thermocycling conditions consisted of an initial incubation at 50 °C for 5 min, followed by denaturation at 95 °C for 10 min and then 40 cycles of amplification with denaturation at 95 °C for 15 s and annealing/extension at 60 °C for 60 s. Relative gene expression levels were calculated using the ΔΔCt method, normalizing target gene expression to ACTB. All reactions were performed in technical triplicates.

[4] = system: mitochondrial membrane potential in U87 and U87-TxR cells; test: TMRE mitochondrial membrane potential; type: cell-based, human; details: 4 µM, 24 h, both cell lines
Protocol: The cell-permeable fluorescent dye TMRE was used to evaluate mitochondrial membrane potential. TMRE selectively accumulates in active mitochondria with intact membrane potential. […] U87 and U87-TxR cells were seeded in 6-well plates at a density of 150,000 cells per well. After 24 h, cells were treated with 2 and 5 (4 µM) and incubated for an additional 24 h. After treatment, cells were trypsinized, resuspended in complete medium containing 500 nM TMRE, and incubated for 30 min at 37 °C in the dark. CCCP (10 µM) was used as a positive control for mitochondrial depolarization and added 30 min before staining. For each sample, at least 10,000 events were collected. TMRE was detected at […]. The results were calculated using CytExpert 2.4.0.28 software (Beckman Coulter, Indianapolis, IN, USA).

[5] = system: H2O2 and peroxynitrite anion levels in U87 cells; test: ROS detection by DHR, U87; type: cell-based, human; details: 4 µM, 24 h and 48 h
Protocol: The levels of ROS were measured in U87 and U87-TxR cells by flow cytometry. The production of superoxide anions was detected using DHE fluorescence dye, while production of H2O2 and peroxynitrite anions was detected using DHR fluorescence dye. Cells were seeded in 6-well plates (150,000 cell/well) and incubated overnight. The cells were then treated with compounds 2 or 5 (4 μM) for 24 h and 48 h. CDDP (10 μM) was used as a positive control. After the treatment period, the cells were stained with DHE or DHR for 30 min in the dark. Following incubation, cells were harvested with trypsinization and washed twice in cold phosphate buffer solution (PBS). Fluorescence was measured on a CytoFlex flow cytometer (Beckman Coulter, Indianapolis, IN, USA). Green fluorescence from the oxidized DHR dye was detected at 525 nm, while the red fluorescence from ethidium derived from DHE was detected at 585 nm. At least 10,000 events were assayed for each sample. The results were analyzed by CytExpert 2.4.0.28 software (Beckman Coulter, Indianapolis, IN, USA).

[6] = system: TrxR1 protein in U87-TxR cells; test: TrxR1 protein expression by flow cytometry, U87-TxR; type: cell-based, human; details: 48 h; for protein level of TrxR1: 2 µM and 4 µM
Protocol: as §1

[7] = system: U87-TxR cells; test: MTT cell viability assay, U87-TxR; type: cell-based, human; details: Homo sapiens, U87-TxR; 72 h treatment, MTT, MDR cell line
Protocol: (§4) Cell viability was measured using the colorimetric MTT assay based on the reduction of MTT into formazan dye. Cell lines were seeded into 96-well cell culture plates (4000 cells/well) in appropriate medium. After overnight incubation, cells were treated with increasing concentrations of 1, 2, 3, 4, 5, and 6 (0.5, 1, 2, 4, and 8 µM). After 72 h treatment, MTT solution (4 mg/mL) was added and plates were incubated at 37 °C with 5% CO2 for 3 h. After incubation, formazan crystals were dissolved using 100 µL DMSO, resulting in a purple color. The absorbance was measured at 570 nm with a reference wavelength of 690 nm using an automated microplate reader (MultiskanSky, Thermo Scientific, USA). The IC50 values were determined by non-linear regression analysis in GraphPad Prism 8.0.2. software (GraphPad Software, Boston, MA, USA).

[8] = system: SVG p12 cells; test: MTT cell viability assay, SVG p12; type: cell-based, human; details: for IC50: Homo sapiens, SVGp12, 72 h treatment, MTT, normal glial cell line; for Selectivity Index: IC50 SVG p12 vs average IC50 in A-172, U87 and U87-TxR
Protocol: as §4

[9] = system: antioxidant-related gene mRNA in U87 cells; test: RT-qPCR of oxidative-stress-related genes, U87; type: cell-based, human; details: U87, 4 µM, 24 h; for increase in GPX1 mRNA expression: relative to untreated control
Protocol: as §2, §3

| Compound | ASK1 level [1] | P-gp interaction [2] | CAT mRNA expression levels [3] | GSTP gene expression [3] | mRNA expression of SOD2, GSR, and GPX4 [3] | increase in GPX1 mRNA expression [3] [fold] | TMRE fluorescence (mitochondrial membrane potential) [4] | H2O2 and peroxynitrite anion levels (DHR) [5] | protein level of TrxR1 [6] | IC50 [7] [µM] | IC50 [8] [µM] | Selectivity Index [8] | CAT mRNA expression levels [9] | GSTP gene expression [9] | TRX1 mRNA [9] | increase in GPX1 mRNA expression [9] [fold] | increase in TrxR1 level ([6]; 4 µM, relative to untreated control) [%] |
| --- | --- | --- | --- | --- | --- | --- | --- | --- | --- | --- | --- | --- | --- | --- | --- | --- | --- |
| CC1(C)CCC[C@]2(C)[C@@H](CC[C@@](C)(O)/C=C/c3ccc(CNCCCCCCCCNCC45CC6CC(CC(C6)C4)C5)s3)[C@](C)(O)CC[C@@H]12 [Compound 2] | remained unchanged | P-gp inhibitor | remained unchanged | significantly increased | increase | 1.9 | decreased | slight or no increase | significantly increased | 1.96 ± 0.049 | 6.2 ± 0.145 | 2.813 ^S | remained unchanged | significantly increased | significant downregulation | 1.8 | – |
| CC1(C)CCC[C@]2(C)[C@@H](CC[C@@](C)(O)/C=C/c3ccc(CNCCCCCCCCNCC45CC6CC(CC(C6)C4)C5)o3)[C@](C)(O)CC[C@@H]12 [Compound 5] | remained unchanged | P-gp substrate | remained unchanged | significantly increased | increase | 1.5 | decreased | slight or no increase | significantly increased | 3.78 ± 0.118 | 6.69 ± 0.128 | 1.470 | remained unchanged | significantly increased | – | 2.2 | 69 |
